Holding throughout (assay): relative viability (nuclei count vs DMSO), 5 days (fraction); higher = more cells survive
Compound in the experiment “Vandetanib + Luminespib”: COc1cc2/c(=N/c3ccc(Br)cc3F)nc[nH]c2cc1OCC1CCN(C)CC1 [Vandetanib] + CCNC(=O)c1noc(-c2cc(C(C)C)c(O)cc2O)c1-c1ccc(CN2CCOCC2)cc1 [Luminespib] (partner 0.01 µM)
In a few lines:
(§1)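 Five library-drug doses in √10 steps were combined with a fixed anchor-drug dose, or a single drug was given alone, by pin tool to lung cancer cell lines in 1536-well plates the day after seeding. Nuclei were stained and counted after 5 days. Relative viability is the nuclei count in treated wells over that in vehicle wells, taken as the median of duplicate plates.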

Compound in the experiment “NVP-TAE684 + Navitoclax”: COc1cc(N2CCC(N3CCN(C)CC3)CC2)ccc1Nc1ncc(Cl)c(Nc2ccccc2S(=O)(=O)C(C)C)n1 [NVP-TAE684] + CC1(C)CCC(c2ccc(Cl)cc2)=C(CN2CCN(c3ccc(C(=O)NS(=O)(=O)c4ccc(N[C@H](CCN5CCOCC5)CSc5ccccc5)c(S(=O)(=O)C(F)(F)F)c4)cc3)CC2)C1 [Navitoclax] (partner 0.5 µM)
The essentials: as §1

Compound in experiment [1]: C1=CC=C2C(=C1)N=C(S2)C(C#N)C3=NC(=NC=C3)NCCC4=CN=CC=C4 + Cc1cc(Nc2cc(N3CCN(C)CC3)nc(Sc3ccc(NC(=O)C4CC4)cc3)n2)n[nH]1 [Tozasertib] (partner 0.1 µM)
The essentials:
as §1

Compound in the experiment “Vandetanib + Olaparib”: COc1cc2/c(=N/c3ccc(Br)cc3F)nc[nH]c2cc1OCC1CCN(C)CC1 [Vandetanib] + O=C(c1cc(Cc2n[nH]c(=O)c3ccccc23)ccc1F)N1CCN(C(=O)C2CC2)CC1 [Olaparib] (partner 8 µM)
In a few lines:
as §1

As for UMC-11, the relative viability came to 1.06 with Vandetanib + Luminespib (first compound 0.02 µM); 1.01 in the experiment with Vandetanib + Luminespib (first compound 0.06325 µM); 0.225 in the experiment with Vandetanib + Luminespib (first compound 0.2 µM); 0.998 with Vandetanib + Luminespib (first compound 0.6325 µM); 1.03 with Vandetanib + Luminespib (first compound 2 µM); 0.331 with NVP-TAE684 + Navitoclax (first compound 0.2 µM). Also, the relative viability with NVP-TAE684 + Navitoclax (first compound 0.6325 µM) was 0.289; in the experiment with NVP-TAE684 + Navitoclax (first compound 2 µM), 0.162; in experiment [1] (first compound 0.005 µM) it was 0.212; in experiment [1] (first compound 0.01581 µM), 0.214; in experiment [1] (first compound 0.05 µM) it was 0.177; in experiment [1] (first compound 0.1581 µM), 0.249. The relative viability in experiment [1] (first compound 0.5 µM) turned out to be 0.206; with Vandetanib + Olaparib (first compound 0.02 µM) it was 0.707; with Vandetanib + Olaparib (first compound 0.06325 µM), 0.35; with Vandetanib + Olaparib (first compound 0.2 µM), 0.473; with Vandetanib + Olaparib (first compound 0.6325 µM), 0.315; with Vandetanib + Olaparib (first compound 2 µM), 0.475.

These data come from the supplement of paper PMC10307832.
